Reference: patent US8198285B2, “Pyrazine derivatives” (Astrazeneca AB, priority 2010, dated 2012)
Counter-ions that a name gives are not always drawn.

System: β-catenin accumulation in the nucleus of murine C3H/10T1/2 cells
Experiment: Cellular beta-catenin stabilisation assay, Test (b)
Format: cell-based
Details: Mus musculus, 24 hours, read-out: EC50 versus cellular β-catenin accumulation in the nucleus of murine C3H/10T1/2 cells
Description: This assay uses an imaging based approach to measure the ability of test compounds to promote Beta-catenin stabilisation in the nucleus of C3H10T1/2 cells. Beta-catenin stabilisation is an indicator of GSK3β inhibition.
A C3H10T1/2 mouse clone 8 fibroblast cell line (American Type Culture Collection (ATCC, USA; catalogue number CRL 226) was routinely maintained at 37° C. with 5% CO2 in Basal Medium Eagle (BME, Invitrogen; Paisley, UK; catalogue number 41010) containing 10% (v/v) foetal bovine serum (FBS, Invitrogen, Paisley; UK; catalogue number 10270) and 2 mM L-glutamine (Invitrogen, Paisley, UK; catalogue number 25030024). For the assay, the cells were detached from the culture flask with ‘Accutase’ (Innovative Cell Technologies Inc., San Diego, USA; catalogue number AT104) using standard tissue culture methods and re-suspended in assay media comprising of BME containing 5% (v/v) FBS and 2 mM L-glutamine to give 55,555 cells per ml. Then, 90 μl of this solution was seeded into each well of a clear-bottom 96 well tissue culture plate (Perkin Elmer Viewplate; catalogue number 6005182) using a Multidrop Combi Dispenser (Thermo Fisher Scientific, Loughborough, UK) to give 5,000 cells per well. Plates were incubated overnight at 37° C. with 5% CO2 to allow the cells to adhere to the wells. Test compounds were prepared as 10 mM stock solutions in dimethylsulphoxide (DMSO) (Sigma-Aldrich; Poole, UK, catalogue number 49442-9) and serially diluted in DMSO. A Multidrop Combi was used to dispense 245 μl of pre-warmed assay media into a 96 well plate (Thermo Fisher Scientific, Loughborough, UK; catalogue number 50823925) before 5 μl of serially diluted compound was added to this intermediate plate. After mixing, 10 μl of each compound concentration was added to the cell plates. The total dilution factor from DMSO stock was 500 times. Control cells received either DMSO (0.2% v/v final concentration) or 10 μM positive control compound. The cells were incubated for 24 hours at 37° C. with 5% CO2.
After compound treatment the cells were fixed by the addition of 100 μl of 8% w/v paraformaldehyde (Sigma-Aldrich, Poole, UK; catalogue number P6148), directly into the assay plate wells. The cells were incubated at ambient temperature with fixative for 30 minutes before washing 3 times with 100 μl phosphate-buffered saline (PBS, Sigma-Aldrich; catalogue number D8537). […] The cells were then washed 3 times in 100 μl of PBS before the plates were sealed ready for image capture. Fluorescent images were captured and quantified using the Incell Analyser 3000 (GE Healthcare, USA). […]

COCCCNCCCc1ccc(-c2cnc(N)c(C(=O)Nc3cccnc3)n2)cc1 [Example 1, 3-Amino-6-(4-{3-[(3-methoxypropyl)amino]propyl}phenyl)-N-pyridin-3-ylpyrazine-2-carboxamide tri-hydrochloride]
EC50: ~242 nM
